10 molecules from patent US20260217767A1, “NOVEL A4B7 THIOETHER PEPTIDE DIMER ANTAGONISTS” (Protagonist Therapeutics, Inc., priority 2014, published 2026) can be followed below.

Read-outs that look alike come from different tables or passages of the source. *1 amine or outer side, *2 acyl side, *3 side chain or, on linkers, in order; H or OH if unused. Where a SMILES comes first, the peptide text is derived from it. Bridges are numbered along the chain shown (N, C = ends). Roman numbers before positions name the chains, in order. [ ]: non-standard residue; d: D form. Phe(4-CF3) = N[C@@H](Cc1ccc(C(F)(F)F)cc1)C(=O)O; 1Nal = N[C@@H](Cc1cccc2ccccc12)C(=O)O; Diglycolyl = O=C(COCC(=O)[*:2])[*:1]; NMeR = CN[C@@H](CCCNC(=N)N)C(=O)O; X1 = O=C(c1ccccc1C[*:2])[*:1]; Pen = CC(C)(S)[C@H](N)C(=O)O Bounds are passed on as bounds.

The test has as its target T1, rh integrin α4β7 (Homo sapiens, UniProt P13612+P26010).
T1 construct: purchased R&D Systems 5397-A30
T1 sequence (P13612 34-977 limits assumed): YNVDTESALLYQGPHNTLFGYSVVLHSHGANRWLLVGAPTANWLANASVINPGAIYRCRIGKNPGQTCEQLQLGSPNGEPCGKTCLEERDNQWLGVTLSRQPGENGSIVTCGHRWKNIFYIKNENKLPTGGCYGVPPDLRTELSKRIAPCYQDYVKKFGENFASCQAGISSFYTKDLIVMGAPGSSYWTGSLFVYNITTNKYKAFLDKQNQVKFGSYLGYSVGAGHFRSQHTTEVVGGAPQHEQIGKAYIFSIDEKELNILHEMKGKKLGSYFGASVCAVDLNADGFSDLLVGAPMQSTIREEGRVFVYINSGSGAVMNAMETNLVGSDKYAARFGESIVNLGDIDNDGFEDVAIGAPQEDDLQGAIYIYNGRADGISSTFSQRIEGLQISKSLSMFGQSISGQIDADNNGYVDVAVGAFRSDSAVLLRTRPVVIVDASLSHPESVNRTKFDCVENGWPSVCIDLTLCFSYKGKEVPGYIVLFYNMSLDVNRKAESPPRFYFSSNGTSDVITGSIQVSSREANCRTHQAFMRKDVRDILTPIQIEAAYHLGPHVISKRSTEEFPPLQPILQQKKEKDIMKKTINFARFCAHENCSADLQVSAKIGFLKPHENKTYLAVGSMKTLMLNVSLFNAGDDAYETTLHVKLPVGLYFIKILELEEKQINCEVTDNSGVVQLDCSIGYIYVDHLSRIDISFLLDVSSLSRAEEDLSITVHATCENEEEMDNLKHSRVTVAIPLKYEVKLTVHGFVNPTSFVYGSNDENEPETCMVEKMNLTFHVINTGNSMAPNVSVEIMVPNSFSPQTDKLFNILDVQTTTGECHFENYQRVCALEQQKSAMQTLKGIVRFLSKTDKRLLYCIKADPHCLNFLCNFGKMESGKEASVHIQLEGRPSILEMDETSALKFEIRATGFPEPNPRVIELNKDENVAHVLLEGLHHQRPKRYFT
T1 sequence (P26010 20-723 limits assumed): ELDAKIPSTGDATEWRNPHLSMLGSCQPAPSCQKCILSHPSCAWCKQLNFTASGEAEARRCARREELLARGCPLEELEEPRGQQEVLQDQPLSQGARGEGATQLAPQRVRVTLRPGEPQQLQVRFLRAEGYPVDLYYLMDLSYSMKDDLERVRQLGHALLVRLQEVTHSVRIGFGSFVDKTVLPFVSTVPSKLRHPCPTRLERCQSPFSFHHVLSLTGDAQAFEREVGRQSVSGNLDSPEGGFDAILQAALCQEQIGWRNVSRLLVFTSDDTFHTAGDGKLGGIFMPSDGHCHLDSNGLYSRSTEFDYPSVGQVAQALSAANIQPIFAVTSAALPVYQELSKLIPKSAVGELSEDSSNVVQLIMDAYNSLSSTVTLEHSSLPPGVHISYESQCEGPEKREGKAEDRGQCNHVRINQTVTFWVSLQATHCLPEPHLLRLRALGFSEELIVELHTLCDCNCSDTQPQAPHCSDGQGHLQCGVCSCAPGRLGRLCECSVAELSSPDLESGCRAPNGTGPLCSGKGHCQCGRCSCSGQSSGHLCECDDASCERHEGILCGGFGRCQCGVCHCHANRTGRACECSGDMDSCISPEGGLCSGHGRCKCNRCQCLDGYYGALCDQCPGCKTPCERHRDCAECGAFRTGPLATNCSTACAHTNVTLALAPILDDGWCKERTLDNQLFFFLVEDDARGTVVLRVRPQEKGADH
Description: α4β7-MAdCAM Competition ELISA. Type of test: binding. Conditions: read-out: ELISA A4B7. The gist of the method:
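Recombinant human α4β7 captured on nickel-coated plates, then incubated 1 h at room temperature with serially diluted peptides (final top 10 μM) and 10 nM final MAdCAM-1 in Tris pH 7.6 buffer with 1 mM MnCl2 or MgCl2. Bound MAdCAM-1 detected with anti-human IgG1-HRP and TMB, absorbance at 450 nm.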
For orientation: An ELISA detects its analyte on a solid surface through an enzyme-linked reagent.

Setting [1] is: thioether monomer peptides, Table 6.
Where [2] appears, read: thioether peptide dimers, Table 7.

On to `CC(C)C[C@@H]1NC(=O)[C@H]([C@@H](C)O)NC(=O)[C@H](CC(=O)O)NC(=O)[C@H](CO)NC(=O)[C@H](CCCNC(=N)N)N(C)C(=O)c2ccccc2CSC(C)(C)[C@@H](C(=O)N[C@@H](Cc2c[nH]c3ccccc23)C(=O)N[C@H](CCC(=O)O)C(=O)N[C@H](CCC(=O)O)C(N)=O)NC1=O` [compound 108] (HELM PEPTIDE1{[meR].S.D.T.L.[Pen].W.[dE].[dE].[am]}|CHEM1{[O=C(c1ccccc1C[*:2])[*:1]]}$PEPTIDE1,CHEM1,1:R1-1:R1|PEPTIDE1,CHEM1,6:R3-1:R2$$$V2.0), for which the IC50 under setting [1] is under 25 nM.
On to `CC(C)C[C@@H]1NC(=O)[C@H]([C@@H](C)O)NC(=O)[C@H](CC(=O)O)NC(=O)[C@H](CO)NC(=O)[C@H](CCCNC(=N)N)N(C)C(=O)c2ccccc2CSC(C)(C)[C@@H](C(=O)N[C@@H](Cc2c[nH]c3ccccc23)C(=O)N[C@H](CCC(=O)O)C(=O)N[C@H](Cc2ccc(O)cc2)C(N)=O)NC1=O` [compound 110] (HELM PEPTIDE1{[meR].S.D.T.L.[Pen].W.[dE].[dY].[am]}|CHEM1{[O=C(c1ccccc1C[*:2])[*:1]]}$PEPTIDE1,CHEM1,1:R1-1:R1|PEPTIDE1,CHEM1,6:R3-1:R2$$$V2.0), for which the IC50 under setting [1] was under 25 nM.
Still for that read-out and setting: the same measure for `CC(C)C[C@@H]1NC(=O)[C@H]([C@@H](C)O)NC(=O)[C@H](CC(=O)O)NC(=O)[C@H](CO)NC(=O)[C@H](CCCNC(=N)N)N(C)C(=O)c2ccccc2CSC(C)(C)[C@@H](C(=O)N[C@@H](Cc2c[nH]c3ccccc23)C(=O)N[C@H](CCC(=O)O)C(=O)N[C@@H](CCC(=O)O)C(N)=O)NC1=O` [compound 113] (HELM PEPTIDE1{[meR].S.D.T.L.[Pen].W.[dE].E.[am]}|CHEM1{[O=C(c1ccccc1C[*:2])[*:1]]}$PEPTIDE1,CHEM1,1:R1-1:R1|PEPTIDE1,CHEM1,6:R3-1:R2$$$V2.0): under 25 nM; for `CC(C)C[C@@H]1NC(=O)[C@H]([C@@H](C)O)NC(=O)[C@H](CC(=O)O)NC(=O)[C@H](CO)NC(=O)[C@H](CCCNC(=N)N)N(C)C(=O)c2ccccc2CSC(C)(C)[C@@H](C(=O)N[C@@H](Cc2ccc3ccccc3c2)C(=O)N[C@H](CCC(=O)O)C(N)=O)NC1=O` [compound 114] (HELM PEPTIDE1{[meR].S.D.T.L.[Pen].[O=C([C@H](Cc1ccc2ccccc2c1)N[*:1])[*:2]].[dE].[am]}|CHEM1{[O=C(c1ccccc1C[*:2])[*:1]]}$PEPTIDE1,CHEM1,1:R1-1:R1|PEPTIDE1,CHEM1,6:R3-1:R2$$$V2.0): under 25 nM.
Take `CC(C)C[C@@H]1NC(=O)[C@H]([C@@H](C)O)NC(=O)[C@H](CC(=O)O)NC(=O)[C@H](CO)NC(=O)[C@H](CCCNC(=N)N)N(C)C(=O)c2ccccc2CSC(C)(C)[C@@H](C(=O)N[C@@H](Cc2ccc3ccccc3c2)C(N)=O)NC1=O` [compound 116] (HELM PEPTIDE1{[meR].S.D.T.L.[Pen].[O=C([C@H](Cc1ccc2ccccc2c1)N[*:1])[*:2]].[am]}|CHEM1{[O=C(c1ccccc1C[*:2])[*:1]]}$PEPTIDE1,CHEM1,1:R1-1:R1|PEPTIDE1,CHEM1,6:R3-1:R2$$$V2.0): the IC50 under setting [1] is under 25 nM.
For `CC(C)C[C@@H]1NC(=O)[C@H]([C@@H](C)O)NC(=O)[C@H](CC(=O)O)NC(=O)[C@H](CO)NC(=O)[C@H](CCCNC(=N)N)N(C)C(=O)CSC[C@@H](C(=O)N[C@@H](Cc2c[nH]c3ccccc23)C(=O)N[C@H](CCCCNC(=O)COCC(=O)NCCCC[C@@H](NC(=O)[C@H](Cc2c[nH]c3ccccc23)NC(=O)[C@@H]2CSCC(=O)N(C)[C@@H](CCCNC(=N)N)C(=O)N[C@@H](CO)C(=O)N[C@@H](CC(=O)O)C(=O)N[C@@H]([C@@H](C)O)C(=O)N[C@@H](CC(C)C)C(=O)N2)C(N)=O)C(N)=O)NC1=O` [compound 143], under setting [2], the IC50 was under 25 nM.
On the same count and under the same terms, the same measure for `CC(C)C[C@@H]1NC(=O)[C@H]([C@@H](C)O)NC(=O)[C@H](CC(=O)O)NC(=O)[C@H](CO)NC(=O)[C@H](CCCNC(=N)N)N(C)C(=O)c2ccccc2CSC(C)(C)[C@@H](C(=O)N[C@@H](Cc2cccc3ccccc23)C(=O)N[C@H](CCC(=O)O)C(=O)N[C@H](CCCCNC(=O)COCC(=O)NCCCC[C@@H](NC(=O)[C@@H](CCC(=O)O)NC(=O)[C@H](Cc2cccc3ccccc23)NC(=O)[C@H]2NC(=O)[C@H](CC(C)C)NC(=O)[C@H]([C@@H](C)O)NC(=O)[C@H](CC(=O)O)NC(=O)[C@H](CO)NC(=O)[C@H](CCCNC(=N)N)N(C)C(=O)c3ccccc3CSC2(C)C)C(N)=O)C(N)=O)NC1=O` [compound 158] (I: [NMeR]SDTL[Pen][1Nal][dE][dK]-NH2 / II: [NMeR]SDTL[Pen][1Nal][dE][dK]-NH2; linker I:9-II:9 via Diglycolyl; linker I:N-I:6, II:N-II:6 via X1): under 25 nM; for `CC(C)C[C@@H]1NC(=O)[C@H]([C@@H](C)O)NC(=O)[C@H](CC(=O)O)NC(=O)[C@H](CO)NC(=O)[C@H](CCCNC(=N)N)N(C)C(=O)c2ccccc2CSC(C)(C)[C@@H](C(=O)N[C@@H](Cc2ccc(C(F)(F)F)cc2)C(=O)N[C@@H](CCC(=O)O)C(=O)N[C@H](CCCCNC(=O)COCC(=O)NCCCC[C@@H](NC(=O)[C@H](CCC(=O)O)NC(=O)[C@H](Cc2ccc(C(F)(F)F)cc2)NC(=O)[C@H]2NC(=O)[C@H](CC(C)C)NC(=O)[C@H]([C@@H](C)O)NC(=O)[C@H](CC(=O)O)NC(=O)[C@H](CO)NC(=O)[C@H](CCCNC(=N)N)N(C)C(=O)c3ccccc3CSC2(C)C)C(N)=O)C(N)=O)NC1=O` [compound 166] (I: [NMeR]SDTL[Pen][Phe(4-CF3)]E[dK]-NH2 / II: [NMeR]SDTL[Pen][Phe(4-CF3)]E[dK]-NH2; linker I:9-II:9 via Diglycolyl; linker I:N-I:6, II:N-II:6 via X1): under 25 nM.
For the molecule `CC(C)C[C@@H]1NC(=O)[C@H]([C@@H](C)O)NC(=O)[C@H](CC(=O)O)NC(=O)[C@H](CO)NC(=O)[C@H](CCCNC(=N)N)N(C)C(=O)c2ccccc2CSC(C)(C)[C@@H](C(=O)N[C@@H](Cc2cccc3ccccc23)C(=O)N[C@@H](CCC(=O)O)C(=O)N[C@H](CCCCNC(=O)COCC(=O)NCCCC[C@@H](NC(=O)[C@H](CCC(=O)O)NC(=O)[C@H](Cc2cccc3ccccc23)NC(=O)[C@H]2NC(=O)[C@H](CC(C)C)NC(=O)[C@H]([C@@H](C)O)NC(=O)[C@H](CC(=O)O)NC(=O)[C@H](CO)NC(=O)[C@H](CCCNC(=N)N)N(C)C(=O)c3ccccc3CSC2(C)C)C(N)=O)C(N)=O)NC1=O` [compound 167] (I: [NMeR]SDTL[Pen][1Nal]E[dK]-NH2 / II: [NMeR]SDTL[Pen][1Nal]E[dK]-NH2; linker I:9-II:9 via Diglycolyl; linker I:N-I:6, II:N-II:6 via X1), the IC50 under setting [2] is under 25 nM.
The same measure, in the same setting: next, `CC(C)C[C@@H]1NC(=O)[C@H]([C@@H](C)O)NC(=O)[C@H](CC(=O)O)NC(=O)[C@H](CO)NC(=O)[C@H](CCCNC(=N)N)N(C)C(=O)c2ccccc2CSC(C)(C)[C@@H](C(=O)N[C@@H](Cc2ccc(-c3ccccc3)cc2)C(=O)N[C@H](CCC(=O)O)C(=O)N[C@H](CCCCN)C(N)=O)NC1=O` [compound 178] (HELM PEPTIDE1{[meR].S.D.T.L.[Pen].[O=C([C@H](Cc1ccc(-c2ccccc2)cc1)N[*:1])[*:2]].[dE].[dK].[am]}|CHEM1{[O=C(c1ccccc1C[*:2])[*:1]]}$PEPTIDE1,CHEM1,1:R1-1:R1|PEPTIDE1,CHEM1,6:R3-1:R2$$$V2.0): under 25 nM.
